The subject of series [1] is HepG2. Briefly: Cytotoxicity against human HepG2 cells assessed as cell viability at 10 uM incubated for 1 hr by EZ-Cytox cell viability assay. In kind it is cell-based. The settings on record: hepg2, 1 h.
Series [2] concerns HepG2. Briefly: Hepatoprotective activity against H2O2-induced cell death in human HepG2 cells assessed as cell viability at 10 uM preincubated for 1 hr followed by H2O2-stimulation and measured after 24 hrs by EZ-Cytox cell viability assay (reference value: 43.9 +/- 5.25%). In kind it is functional. The conditions noted are these: read-out: Activity.
The subject of series [3] is HepG2. Briefly: Inhibition of H2O2-induced ROS accumulation in human HepG2 cells assessed as ROS generation at 10 uM preincubated for 1 hr followed by H2O2-stimulation and measured after 30 mins by H2DCFDA staining based flow cytometry (reference value: 100 +/- 11.53%). It counts as functional. Details: scale not given: the % may be the effect or the level left. Background: In flow cytometry, cells or beads pass a laser one at a time.

Series [4] concerns HepG2. Briefly: Hepatoprotective activity against H2O2-induced cell death in human HepG2 cells assessed as cell viability at 50 uM preincubated for 1 hr followed by H2O2-stimulation and measured after 24 hrs by EZ-Cytox cell viability assay (reference value: 43.9 +/- 5.25%). In kind it is functional. The conditions noted are these: read-out: Activity.
Series [5] concerns HepG2. Briefly: Inhibition of H2O2-induced ROS accumulation in human HepG2 cells at 50 uM assessed as ROS generation preincubated for 1 hr followed by H2O2-stimulation and measured after 30 mins by H2DCFDA staining based flow cytometry (reference value: 100 +/- 11.53%). In kind it is functional. Details: scale not given: the % may be the effect or the level left.

Molecules are shown by their SMILES.

For the compound `C/C=C/c1cc(OC)c(OC)c(OC)c1`, the Activity result in the series with HepG2 [1] is given as “Non-Toxic”; with HepG2 [3], 75.8%. Besides, the viability at 10 µM with HepG2 [2] was found to be 62.2%.
For `COc1c2ccoc2c(OC[C@@H](O)C(C)(C)OC)c2oc(=O)ccc12` the same measures were “Non-Toxic”, 52% and 40.4%.
For `CC1(C)O[C@@H]1COc1c2ccoc2cc2oc(=O)ccc12` the same measures were “Non-Toxic”, 103.9% and 59.3%.
`COc1c2ccoc2c(O)c2oc(=O)ccc12`: the Activity result with HepG2 [1] is “Non-Toxic”; with HepG2 [3], 38.1%. In addition, in the series with HepG2 [2], the viability at 10 µM was determined as 34.6%.
For `COc1c2c(c(OCC=C(C)C)c3occc13)O[C@]1(C=C2)O[C@H](COc2c3ccoc3cc3oc(=O)ccc23)C(C)(C)O1` the same measures were “Non-Toxic”, 79.9% and 64.1%.
For `COc1c2ccoc2c(OC/C=C(/C)COC(=O)CC(C)C)c2oc(=O)ccc12` the same measures were “Non-Toxic”, 90.1% and 58.5%.
For `CC(C)=CCOc1c2occc2c(OC[C@@H](O)C(C)(C)O)c2ccc(=O)oc12` the same measures were “Non-Toxic”, 78% and 51%.
With `CC(C)=CCOc1c2occc2c(OC[C@H]2OC2(C)C)c2ccc(=O)oc12`, the Activity result with HepG2 [1] is reported as “Non-Toxic”; in the series with HepG2 [3], 65.5%. In addition, the viability at 10 µM in the series on HepG2 [2] was 56.2%.
For `C=C(C)[C@H](O)COc1c2ccoc2c(OCC=C(C)C)c2oc(=O)ccc12` the same measures were “Non-Toxic”, 63.9% and 50.9%.
For `COc1c2c(c(OCC=C(C)C)c3occc13)O[C@@]1(C=C2)O[C@H](COc2c3ccoc3cc3oc(=O)ccc23)C(C)(C)O1` the same measures were “Non-Toxic”, 100% and 63%.
For `CC(C)=CCOc1c2ccoc2c(OCC(O)C(C)(C)O)c2oc(=O)ccc12` (single isomer, unassigned; (-)) the same measures were “Non-Toxic”, 85.3% and 61.1%.
With `COc1c2ccoc2cc2oc(=O)ccc12` [BERGAPTEN], the Activity result is “Non-Toxic” in the series on HepG2 [1] and 92.7% in the series on HepG2 [3]. Moreover, the viability at 10 µM with HepG2 [2] is 60.3%.
As for `COc1c2ccoc2c(OC[C@@H](O)C(C)(C)O)c2oc(=O)ccc12` [BYAKANGELICIN], the Activity entry with HepG2 [1] is recorded as “Non-Toxic”; in the series with HepG2 [3], 57.9%. For the same compound, the viability at 10 µM in the series with HepG2 [2] came out at 46.5%.
For `CC(C)=CCOc1c2ccoc2cc2oc(=O)ccc12` [ISOIMPERATORIN] the same measures were “Non-Toxic”, 71.1% and 67%.
For `COc1c2occc2c(OCC=C(C)C)c2ccc(=O)oc12` [KINIDILIN] the same measures were “Non-Toxic”, 51.3% and 60.5%.
`COc1c2occc2cc2ccc(=O)oc12` [METHOXSALEN]: the Activity result with HepG2 [1] is on record as “Non-Toxic”; in the series on HepG2 [3] it was 77%. Moreover, the viability at 10 µM with HepG2 [2] came to 56.5%.
Regarding `CC(C)(O)[C@H](O)COc1c2ccoc2cc2oc(=O)ccc12` [OXYPEUCEDANIN HYDRATE], the Activity result in the series on HepG2 [1] was “Non-Toxic”; with HepG2 [3], 92.8%. In the series on HepG2 [2], the viability at 10 µM was 47.5%.
With `CC(C)=CCOc1c2occc2cc2ccc(=O)oc12` [PENTOSALEN], the results for the Activity result in the series with HepG2 [1] and in the series with HepG2 [3] were “Non-Toxic” and 77.1%, respectively. Further, the viability at 10 µM with HepG2 [2] turned out to be 71.5%.
For `COc1c2ccoc2c(OCC=C(C)C)c2oc(=O)ccc12` [PHELLOPTERIN] the same measures were “Non-Toxic”, 58.3% and 57.6%.
For `O=c1ccc2cc3ccoc3cc2o1` [PSORALEN] the same measures were “Non-Toxic”, 101.4% and 55.5%.
Take `O=C(/C=C/c1ccc(O)c(O)c1)O[C@H](Cc1ccc(O)c(O)c1)C(=O)O` [ROSMARINIC ACID]: the viability at 50 µM in the series on HepG2 [4] worked out at 65.3%. For the same compound, the Activity with HepG2 [5] was 49.3%.

(Values after ChEMBL document CHEMBL4414565, “Furanocoumarins from the Roots of Angelica dahurica with Inhibitory Activity against Intracellular Reactive Oxygen Species Accumulation” (J Nat Prod, 2019).)
